According to PMC9886271 (Drug metabolism and pharmacokinetics, 2022):
Entries after “also recorded” stand apart in the source; their conditions may differ. Counter-ions that a name gives are not always drawn.

Experiments:
[1] = male, CD-1, mouse, pH 7.4
[2] = test system: mouse liver microsomes (MLM); conditions: MLM; for Vmax, best fit value: formation of EDDP/d6-EDDP, mean ± S.E.
[3] = In vivo toxicity, Up-and-Down method, single i.v. dose via tail vein; conditions: male, CD-1, mouse, iv
Swiss mice = conditions: intraperitoneal (i.p.); cited from earlier work
[4] = Tissue distribution after single i.v. injection; conditions: for rank order of the extent of exposure of the organs to the parent drug: i.v. administration; for Metabolite Tissue AUC0–8h, Brain / Metabolite Tissue AUC0–8h, Heart / Metabolite Tissue AUC0–8h, Kidney / Metabolite Tissue AUC0–8h, Liver / Metabolite Tissue AUC0–8h, Lung / Metabolite Tissue AUC0–8h, Spleen: after 2.0 mg/kg i.v. of the parent drug; for rank order of the extent of exposure of the organs to the metabolite: after i.v. parent drug
[5] = human, pH 7.4
[6] = test system: human liver microsomes (HLM); conditions: HLM; for Vmax, best fit value: formation of EDDP/d6-EDDP, mean ± S.E.
[7] = test system: postoperative mechanical hypersensitivity in mice; assay: Postoperative pain model; conditions: post-operative treatment, 3 mg/kg i.p., once daily for 4 days; for effect on postoperative mechanical hypersensitivity: 3 mg/kg
[8] = Plasma pharmacokinetics after single i.v. injection; conditions: for AUC0–8h (metabolite) / Cmax (metabolite) / Tmax (metabolite): metabolite in plasma after 2.0 mg/kg i.v. of the parent drug

Structure (SMILES)	Vmax, best fit value [2]	rank order of the extent of exposure of the organs to the parent drug [4]	Vmax, best fit value [6]	effect on postoperative mechanical hypersensitivity [7]	AUC0–8h (metabolite) [8] [ng·h/mL]	Cmax (metabolite) [8] [ng/mL]	Tmax (metabolite) [8] [min]	Metabolite Tissue AUC0–8h, Brain [4]	Metabolite Tissue AUC0–8h, Heart [4] [ng·h/g]	Metabolite Tissue AUC0–8h, Kidney [4] [ng·h/g]	Metabolite Tissue AUC0–8h, Liver [4] [ng·h/g]	Metabolite Tissue AUC0–8h, Lung [4] [ng·h/g]	Metabolite Tissue AUC0–8h, Spleen [4] [ng·h/g]	rank order of the extent of exposure of the organs to the metabolite [4]	other results
CCC(=O)C(CC(C)N(C)C)(c1ccccc1)c1ccccc1 (racemic) [methadone, (±)-Methadone hydrochloride, reference compound]	2631 ± 121 pmol·min^−1·mg of protein^−1	kidneys ≈ lungs > spleen > liver > heart > brain	1116 ± 17 pmol·min^−1·mg of protein^−1	completely ineffective											Km at 10 min [1]: 53.5 ± 5.1 µM; LD50 at 20 min [3]: 11.6 mg/kg; LD50 (Swiss mice): 41 mg/kg; Km at 20 min [5]: 82.9 ± 3.7 µM; effect on postoperative mechanical hypersensitivity ([7]; listed as Methadone): unable to reduce the postoperative mechanical hypersensitivity
CC=C1N(C)C(C)CC1(c1ccccc1)c1ccccc1 (stereo not drawn) [EDDP, 2-ethylidene-1,5-dimethyl-3,3,-diphenylpyrrolidine]					257 ± 29	233 ± 28	8.4 ± 6	8.96 ± 5.26 ng·h/g	2155 ± 144	2815 ± 226	5608 ± 218	9672 ± 856	622 ± 45	lungs > liver > kidney ≈ heart > spleen	
[2H]C([2H])([2H])CC(=O)C(CC(C)N(C([2H])([2H])[2H])C([2H])([2H])[2H])(c1ccccc1)c1ccccc1 (racemic) [d9-methadone, (±)-d9-methadone]	1033 ± 45 pmol·min^−1·mg of protein^−1	lungs > kidneys ≈ liver > spleen > heart > brain	438 ± 27 pmol·min^−1·mg of protein^−1	alleviated hypersensitivity after each systemic injection; also recorded: significantly relieved postoperative mechanical hypersensitivity											deuteration effect on Vmax (HVmax/DVmax) [2]: 2.5; deuteration effect on Vmax (HVmax/DVmax) [6]: 2.5; development of analgesic tolerance [7]: no development of the apparent analgesic tolerance
[2H]C([2H])([2H])C1CC(c2ccccc2)(c2ccccc2)C(=CC)N1C([2H])([2H])[2H] (stereo not drawn) [d6-EDDP]					138 ± 25	48 ± 7	19.8 ± 8.4	<LLOQ^§	1243 ± 254	1562 ± 207	4375 ± 513	9886 ± 614	411 ± 33	lungs > liver > kidney ≈ heart > spleen	plasma AUC0–8h of d6-EDDP, fold lower than AUC0–8h of EDDP ([8]; after i.v. parent drug): 2 fold; plasma Cmax of d6-EDDP, fold lower than Cmax of EDDP ([8]; after i.v. parent drug): 5 fold; concentration of the metabolite in the brain ([4]; after 2.0 mg/kg i.v. d9-methadone, every time point): below the lower limit of quantification
